For one molecule, viability, IC50 and MIC results are on record in US20250034139A1, “AMINE COMPOUNDS HAVING ANTI-INFLAMMATORY, ANTIFUNGAL, ANTIPARASITIC, AND ANTICANCER ACTIVITY” (PHARMA CINQ, LLC, priority 2013, published 2025).

Experiment [1] has as its system 4T1 murine breast cancer cells. The experiment in a line: Example S: in vitro anticancer screen, 4T1 cells, Wst1. In kind it is cell-based, mouse. The conditions noted are these: Mus musculus, 4T1, 18 h, 18 hr, Wst1. The gist of the method:
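Read-out is Wst1 absorbance (450 nm, reference 630 nm) after roughly 2 hr dye incubation, giving percent cell survival versus vehicle. Before that, compounds at 1 μM or 5 μM were applied for 18 hr to 4T1 cells plated at 1×10^4 per well.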

In experiment [2] the test system is Cryptococcus neoformans (serotype D). Nature of the experiment: Example K: Cryptococcus neoformans (serotype D) growth inhibition. The conditions noted are these: Cryptococcus deneoformans, OD of 48 hour reading, 37° C., tested 4 to 60 μM, XLfit. In kind it is cell-based.
In experiment [3] the test system is PC3 human prostate cancer cells. The experiment in a line: Example S: in vitro anticancer screen, PC-3 cells, Wst1. In kind it is cell-based. The settings on record: Homo sapiens, PC-3; 0.4 μM, approximately 20 hours, Wst1; read-out: PC-3, percent of cancer cell survival relative to vehicle treated cells. Summed up:
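Values give percent survival relative to vehicle, read by Wst1 absorbance (450/630 nm) after 2 h dye incubation, in triplicate. Cells were seeded at 2×10^4/well and treated about 20 h with compound at 0.4, 0.5 or 2.5 μM, depending on compound.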

Experiment [4] relates to Candida albicans strain 3153. The experiment in a line: Example H: Candida albicans growth inhibition (OD 600 nm). The format is cell-based. The gist of the method:
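Growth inhibition computed as % versus DMSO control from OD600 after ~24 h at 30° C. Inoculum: washed overnight YPD culture of strain 3153 at 3.5×10^4 CFU/ml in YPD; final compound concentrations 0, 5, 10, 16, 22, 30, 40 μM, duplicate wells.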

The structures appear in SMILES notation. In brackets after ≈: the same amount, converted by molar mass.

With `CCCCCCOCCCCCCCCNc1ccnc2c(Cl)cccc12` [Compound AX, 8-Chloro-N-[8-(hexyloxy)octyl]quinolin-4-amine], the viability at 1 µM in experiment [1] (1 μM, read-out: 4T1 1 μM, percent of cancer cell survival relative to vehicle treated cells) was 24.3%. Moreover, the viability at 5 µM in experiment [1] (5 μM, read-out: 4T1 5 μM, percent of cancer cell survival relative to vehicle treated cells) was 18%. In addition, the IC50 is 1.06 µM in experiment [2] (read-out: IC50 (concentration for 50% of inhibition)) and 11.2 µM in experiment [4] (Candida albicans, 3153, read-out: IC50 (uM) (50% inhibition of fungal growth), 24 hrs at 30° C., YPD, XLfit). The MIC came to 10.6 µM (≈ 4.13 µg/mL) in experiment [2] (read-out: MIC (concentration for maximum-99% of inhibition)) and 26.6 µM (≈ 10.4 µg/mL) in experiment [4] (Candida albicans, 3153, 24 hrs at 30° C., YPD, XLfit, read-out: MIC (uM) (99% of inhibition of fungal growth)). For the same molecule, in experiment [3], the viability at 0.4 µM was determined as 31.2%.
